Data from patent US7943795B2, “Vitamin D receptor modulators” (Eli Lilly and Company, priority 2004, dated 2011).

What was measured:
RXR-VDR heterodimer = biological target: T1, RXR-VDR heterodimer (Homo sapiens, UniProt P11473); assay: RXR-VDR heterodimerization (SaOS-2 cells) test; format: cell-based; details: Gal-4-RXR-DEF / VP16-VDR-LBD, luciferase reporter
T1 construct: add the Reporter gene pFR-LUC; and add the Gal-4-RXR-DEF and VP16-VDR-LBD; expressed in transfected cells; host or cells: SaOS-2 cells
T1 sequence (P11473 127-423 limits assumed): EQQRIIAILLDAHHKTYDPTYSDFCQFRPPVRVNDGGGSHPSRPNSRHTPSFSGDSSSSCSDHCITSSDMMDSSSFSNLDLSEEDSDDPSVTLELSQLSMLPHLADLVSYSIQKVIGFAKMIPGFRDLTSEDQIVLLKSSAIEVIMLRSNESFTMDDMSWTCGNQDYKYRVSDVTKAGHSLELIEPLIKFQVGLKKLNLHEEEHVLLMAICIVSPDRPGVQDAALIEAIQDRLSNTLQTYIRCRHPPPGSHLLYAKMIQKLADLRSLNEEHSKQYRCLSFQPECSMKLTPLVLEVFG
T1 sequence (P19793 201-462 partner limits assumed): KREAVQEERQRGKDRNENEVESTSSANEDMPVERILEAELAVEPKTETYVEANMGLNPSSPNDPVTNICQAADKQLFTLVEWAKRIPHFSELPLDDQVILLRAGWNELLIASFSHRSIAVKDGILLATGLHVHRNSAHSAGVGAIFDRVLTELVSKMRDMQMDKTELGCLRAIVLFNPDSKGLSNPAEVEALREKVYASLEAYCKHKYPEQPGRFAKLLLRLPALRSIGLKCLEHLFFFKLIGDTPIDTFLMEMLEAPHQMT
Description: 2. The RXR-VDR heterodimerization (SaOS-2 cells) test is described in the “Assay” section of the Description, infra.
1. The RXR-VDR Heterodimer Assay:
This assay provides the VDR activity of a test compound. It is desirable to have low EC50 values for a compound in this assay. […] Desired assay results are EC50 values less than or equal to 600 nM. Preferred assay results are less than 250 nM, and most preferably less than 150 nM.
(1) Materials and Method for RXR-VDR Heterodimerization Assay Transfection
• Method: Reagents: FuGENE 6 Transfection Reagent (Roche Cat #1 814 443); Growth Media: D-MEM High Glucose (Gibco BRL Cat #11054-020), 10% heat inactivated FBS, (Gibco BRL Cat#10092-147) 1% antibiotic-antimycotic (Ab-Am); (Gibco BRL Cat #15240-062). • Cells: Grow SaOS-2 cells in T-150 cm^2 culture flasks in growth media keeping the density at 5-6×10^5 cells/ml. Passage cells 1:3 twice a week. Add Trypsin EDTA (Gibco BRL Cat #25300-020) and incubate. Resuspend cells in plating media and transfer into growth media. • Wash Media: HBSS Low Glucose Without Phenol Red (Gibco BRL Cat #14175-095), 1% Ab-Am. Plating Media: D-MEM Low Glucose Without Phenol Red (Gibco BRL Cat #11054-020), 1% Ab-Am; D-MEM; 10% Stripped FBS (Hyclone Cat#SH30068.03 Lot #AHM9371); • Transfection/Treatment Media: D-MEM Low Glucose Without Phenol Red only; T-150 cm^2 culture flask: Use Corning Coastar T-150 cm^2 culture flask (Cat #430825) to grow the cells. • Luciferase Assay Reagent: Use Steady-Glo Luciferase Reagent from Promega (Cat #E2550) Consists of: E2533 Assay Substrate, lyophilized product and E2543 Assay Buffer. Thaw at room temperature and store. • Cell Harvesting/Count: Aspirate media from culture flask, rinse cells with HBSS and aspirate. Add trypsin and incubate. When cells appear detached, resuspend cells in growth media. Transfer into a new flask with fresh growth media for passaging the cells. Plate 96 well plates and two extra plates. Mix the cell suspension using pipette. To count the cells using a Hematocytometer. • Plate seeding: Use plating media 10% Stripped FBS in D-MEM Low Glucose, without Phenol Red, 1% Ab-Am. Plate 14 plates @ 165 μl/well. In sterile flask add cell suspension to plating media and mix. Add cells/well. Place the cells in the incubator. Cells should be about 75% confluent prior to transfection. DAY 2: Transfection: Step 1, DNA and Media: Add plain DMEM media to tubes for mixing the DNA; add the Reporter gene pFR-LUC; and add the Gal-4-RXR-DEF and VP16-VDR-LBD. Step 2, FuGENE and Media: Prepare plain DMEM media in a tubes for mixing FuGENE, add FuGENE 6 Transfection Reagent, and incubate. Step 3, FuGENE, DNA and Media Complex: Add FuGENE Media complex from step 2 to DNA Media complex from step 1 and incubate. Step 4, FuGENE, DNA and Media Complex to 96 well plate: Add FuGENE-DNA-Media complex from step 3 to each plate. Incubate. • Day 3: Dosing: Treatment preparation. Allow for transfection time. Make a stock solution of the compounds in DMSO and vortex until all the compounds have been dissolved. Further dilute in D-MEM (Low Glucose—without Phenol Red) Add compounds in quadruplicate to give desired final volume then incubate. • Day 4: Luciferase Assay: Read the plates after drug treatment. Remove part of media from all the wells and leave remainder. Add Steady-Glo Luciferase Reagent mixture/wells and incubate. Count each well using a Luminescence counter, Top Count NXT by Packard preferably set a delay between plates to reduce the background.

[1] = Mouse hypercalcemia assay; format: in vivo
Description: 5. The Mouse Hypercalcemia test is described in the “Assay” section of the Description, infra.
The Mouse Hypercalcemia Assay
The Mouse Hypercalcemia Assay is a six day hypercalcemia test for toxicity and selectivity. Acceptable test results are levels greater than 30 μg/kg/day. Preferred assay results are levels greater than 300 μg/kg/day.
Weanling, virus—antibody-free, five to six weeks old female DBF mice (Harlan, Indianapolis, Ind.) are used for all the studies. Animals are allowed to acclimate to local vivarium conditions for 2 days. Mice are maintained on a 12 hr light/dark cycle at 22° C. with ad lib access to food (TD 5001 with 1.2% Ca and 0.9% P, Teklad, Madison, Wis.) and water. The animals then are divided into groups with 4-5 mice per group. Different doses of test compounds prepared in 10% ethanol and 90% sesame oil, or in an aqueous suspension of sodium lauryl sulfate and CMC (the latter formulation for acidic compounds) are administered to mice orally via gavage for 6 days. 1α-25(OH)2D3 0.5 μg/kg/d was also given to one group of mice as the positive control. Serum ionized calcium is evaluated at 6 hours after the last dosing under isoflurane anesthesia by Ciba-Corning Ca++/PH Analyzer, (Model 634, Chiron Diagnostics Corp., East Walpole, Mass.). Raw data of group differences is assessed by analysis of variance (ANOVA) using Fisher's protected least significant difference (PLSD) where the significance level was P<0.05.

[2] = no effect level: highest dose that did not cause hypercalcemia, oral gavage for 6 days, female DBF mice, serum ionized calcium
[3] = female, DBF, mouse, in vivo, po, 6 days

Structure (SMILES): CCC(CC)(c1ccc(OCC(O)C(C)(C)C)c(C)c1)c1ccc2cc(C(=O)O)ccc2c1 (single isomer, unassigned) [Ex. 2A, 6-{1-Ethyl-1-[4-(2-hydroxy-3,3-dimethyl-butoxy)-3-methyl-phenyl]-propyl}-naphthalene-2-carboxylic acid]
- EC50 (RXR-VDR heterodimer): 30.2 nM
- Mouse Hypercal [1, 2]: 300 µg/kg/day

Structure (SMILES): CCC(CC)(c1ccc(OCC(=O)C(C)(C)C)c(C)c1)c1ccc2cc(C(=O)O)ccc2c1 [Ex. 1, 6-{1-[4-(3,3-dimethyl-2-oxobutoxy)-3-methylphenyl]-1-ethylpropyl}naphthalene-2-carboxylic acid]
- EC50 (RXR-VDR heterodimer): 40 nM
- Mouse Hypercal [1, 3]: 1000 µg/kg/day

Structure (SMILES): CCC(CC)(c1ccc(OCC(=O)C(C)(C)C)c(C)c1)c1ccc2cc(C(=O)NCC(=O)O)ccc2c1 [Ex. 3, [(6-{1-[4-(3,3-Dimethyl-2-oxo-butoxy)-3-methylphenyl]-1-ethylpropyl}naphthalene-2-carbonyl)amino]acetic acid]
- EC50 (RXR-VDR heterodimer): 0.4 nM
- Mouse Hypercal [1, 2]: <300 µg/kg/day

Structure (SMILES): CCC(CC)(c1ccc(OCC(=O)C(C)(C)C)c(C)c1)c1ccc2cc(C(=O)N(C)C)ccc2c1 [Ex. 4, 6-{1-[4-(3,3-dimethyl-2-oxobutoxy)-3-methylphenyl]-1-ethylpropyl}naphthalene-2-carboxylic acid dimethylamide]
- EC50 (RXR-VDR heterodimer): 105 nM
- Mouse Hypercal [1, 3]: 1000 µg/kg/day

Structure (SMILES): CCC(CC)(c1ccc(OCC(=O)C(C)(C)C)c(C)c1)c1ccc2cc(C(=O)N(C)CC(=O)O)ccc2c1 [Ex. 5, [(6-{1-[4-(3,3-Dimethyl-2-oxobutoxy)-3-methylphenyl]-1-ethylpropyl}naphthalene-2-carbonyl)methylamino]acetic acid]
- EC50 (RXR-VDR heterodimer): 1 nM
- Mouse Hypercal [1, 2]: <30 µg/kg/day
